Patent publication US20180244699A1, “1-HYDROXY-3H-2,1-BENZOXABOROLE DERIVATIVES AND THEIR USE AS MICROBIOCIDES” (Syngenta Participations AG, priority 2015, published 2018)

How the values were obtained:
Assay type in all cases: cell-based
[1] = tested on: Thanatephorus cucumeris (Rhizoctonia solani); assay: Thanatephorus cucumeris (Rhizoctonia solani) / liquid culture (foot rot, damping-off); conditions: growth inhibition photometrically 3-4 days after application, compared to untreated control
Experimental: 16. Thanatephorus cucumeris (Rhizoctonia solani)/Liquid Culture (Foot Rot, Damping-Off) Mycelia fragments of a newly grown liquid culture of the fungus are directly mixed into nutrient broth (PDB potato dextrose broth). After placing a (DMSO) solution of the test compounds into a microtiter plate (96-well format), the nutrient broth containing the fungal material is added. The test plates are incubated at 24° C. and the inhibition of growth is determined photometrically 3-4 days after application.

Sclerotinia sclerotiorum = Sclerotinia sclerotiorum / liquid culture (cottony rot); conditions: growth inhibition photometrically 3-4 days after application, compared to untreated control
Experimental: 17. Sclerotinia sclerotiorum/Liquid Culture (Cottony Rot) Mycelia fragments of a newly grown liquid culture of the fungus are directly mixed into nutrient broth (PDB potato dextrose broth). After placing a (DMSO) solution of test compound into a microtiter plate (96-well format) the nutrient broth containing the fungal material is added. The test plates are incubated at 24° C. and the inhibition of growth is determined photometrically 3-4 days after application.

[2] = tested on: Mycosphaerella graminicola (Septoria tritici); assay: Mycosphaerella graminicola (Septoria tritici) / liquid culture (Septoria blotch); conditions: Zymoseptoria tritici, growth inhibition photometrically 4-5 days after application, compared to untreated control
Experimental: 18. Mycosphaerella graminicola (Septoria tritici)/Liquid Culture (Septoria Blotch) Conidia of the fungus from cryogenic storage are directly mixed into nutrient broth (PDB potato dextrose broth). After placing a (DMSO) solution of test compound into a microtiter plate (96-well format), the nutrient broth containing the fungal spores is added. The test plates are incubated at 24° C. and the inhibition of growth is determined photometrically 4-5 days after application.

[3] = tested on: Monographella nivalis (Microdochium nivale); assay: Monographella nivalis (Microdochium nivale) / liquid culture (foot rot cereals); conditions: growth inhibition photometrically 4-5 days after application, compared to untreated control
Experimental: 8. Monographella nivalis (Microdochium nivale)/Liquid Culture (Foot Rot Cereals) Conidia of the fungus from cryogenic storage are directly mixed into nutrient broth (PDB potato dextrose broth). After placing a (DMSO) solution of test compound into a microtiter plate (96-well format), the nutrient broth containing the fungal spores is added. The test plates are incubated at 24° C. and the inhibition of growth is determined photometrically 4-5 days after application.

[4] = tested on: Mycosphaerella arachidis (Cercospora arachidicola); assay: Mycosphaerella arachidis (Cercospora arachidicola) / liquid culture (early leaf spot); conditions: growth inhibition photometrically 4-5 days after application, compared to untreated control
Experimental: 9. Mycosphaerella arachidis (Cercospora arachidicola)/Liquid Culture (Early Leaf Spot) Conidia of the fungus from cryogenic storage are directly mixed into nutrient broth (PDB potato dextrose broth). After placing a (DMSO) solution of test compound into a microtiter plate (96-well format), the nutrient broth containing the fungal spores is added. The test plates are incubated at 24° C. and the inhibition of growth is determined photometrically 4-5 days after application.

Gaeumannomyces graminis = Gaeumannomyces graminis / liquid culture (take-all of cereals); conditions: growth inhibition photometrically 4-5 days after application, compared to untreated control
Experimental: 6. Gaeumannomyces Graminis/Liquid Culture (Take-all of Cereals) Mycelial fragments of the fungus from cryogenic storage were directly mixed into nutrient broth (PDB potato dextrose broth). After placing a (DMSO) solution of test compound into a microtiter plate (96-well format), the nutrient broth containing the fungal spores is added. The test plates are incubated at 24° C. and the inhibition of growth is determined photometrically 4-5 days after application.

Pythium ultimum = Pythium ultimum / liquid culture (seedling damping off); conditions: Globisporangium ultimum, growth inhibition photometrically 2-3 days after application, compared to untreated control
How it was run: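 Fungal mycelia fragments and oospores from fresh liquid culture mixed into potato dextrose broth and added to DMSO solutions of test compound. Incubated at 24° C.; growth inhibition read photometrically 2-3 days after application.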

[5] = tested on: Glomerella lagenarium (Colletotrichum lagenarium); assay: Glomerella lagenarium (Colletotrichum lagenarium) / liquid culture (anthracnose); conditions: Colletotrichum orbiculare, growth inhibition photometrically 3-4 days after application, compared to untreated control
Experimental: 3. Glomerella lagenarium (Colletotrichum lagenarium)/Liquid Culture (Anthracnose) Conidia of the fungus from cryogenic storage are directly mixed into nutrient broth (PDB potato dextrose broth). After placing a (DMSO) solution of test compound into a microtiter plate (96-well format), the nutrient broth containing the fungal spores is added. The test plates are incubated at 24° C. and the inhibition of growth is measured photometrically 3-4 days after application.

Measured: inhibition of growth at 20 ppm

CCOc1c(C(=O)OC)ccc2c1B(O)OC2 [Compound 4, methyl 7-ethoxy-1-hydroxy-3H-2,1-benzoxaborole-6-carboxylate]
≥ 80%: all assays above

COC(=O)c1ccc2c(c1OC(F)F)B(O)OC2 [Compound 16, methyl 7-(difluoromethoxy)-1-hydroxy-3H-2,1-benzoxaborole-6-carboxylate]
≥ 80%: Sclerotinia sclerotiorum | [4] | Gaeumannomyces graminis | Pythium ultimum

COc1c(C(=O)Nc2nnc(C(F)(F)F)s2)ccc2c1B(O)OC2 [Compound 64, 1-hydroxy-7-methoxy-N-[5-(trifluoromethyl)-1,3,4-thiadiazol-2-yl]-3H-2,1-benzoxaborole-6-carboxamide]
≥ 80%: Sclerotinia sclerotiorum | [3] | Gaeumannomyces graminis | Pythium ultimum | [5]

COc1c(C(=O)OC(C)c2cccc(Cl)c2)ccc2c1B(O)OC2 (stereo not drawn) [Compound 83, 1-(3-chlorophenyl)ethyl 1-hydroxy-7-methoxy-3H-2,1-benzoxaborole-6-carboxylate]
not listed: Sclerotinia sclerotiorum | [4]
≥ 80%: all other assays above

COc1c(C(=O)OCCc2scnc2C)ccc2c1B(O)OC2 [Compound 84, 2-(4-methylthiazol-5-yl)ethyl 1-hydroxy-7-methoxy-3H-2,1-benzoxaborole-6-carboxylate]
≥ 80%: [3] | [4] | Gaeumannomyces graminis | Pythium ultimum | [5]

COc1c(C(=O)OCc2ccccc2)ccc2c1B(O)OC2 [Compound 85, benzyl 1-hydroxy-7-methoxy-3H-2,1-benzoxaborole-6-carboxylate]
not listed: Sclerotinia sclerotiorum | [4]
≥ 80%: all other assays above

COc1c(C(=O)OC(CC(F)(F)F)c2ccccc2)ccc2c1B(O)OC2 (stereo not drawn) [Compound 89, (3,3,3-trifluoro-1-phenyl-propyl) 1-hydroxy-7-methoxy-3H-2,1-benzoxaborole-6-carboxylate]
≥ 80%: [1] | [3] | Gaeumannomyces graminis | Pythium ultimum | [5]

COc1c(C(=O)OCC2SCCS2)ccc2c1B(O)OC2 [Compound 100, 1,3-dithiolan-2-ylmethyl 1-hydroxy-7-methoxy-3H-2,1-benzoxaborole-6-carboxylate]
≥ 80%: [1] | [3] | Gaeumannomyces graminis | Pythium ultimum | [5]

CC#CCCOC(=O)c1ccc2c(c1OC)B(O)OC2 [Compound 105, pent-3-ynyl 1-hydroxy-7-methoxy-3H-2,1-benzoxaborole-6-carboxylate]
not listed: [1] | Sclerotinia sclerotiorum
≥ 80%: all other assays above

COc1cccc(C#CCOC(=O)c2ccc3c(c2OC)B(O)OC3)c1 [Compound 107, 3-(3-methoxyphenyl)prop-2-ynyl 1-hydroxy-7-methoxy-3H-2,1-benzoxaborole-6-carboxylate]
not listed: Sclerotinia sclerotiorum | [4]
≥ 80%: all other assays above

COc1c(C(=O)OCCc2ccccc2)ccc2c1B(O)OC2 [Compound 110, phenethyl 1-hydroxy-7-methoxy-3H-2,1-benzoxaborole-6-carboxylate]
not listed: [1] | Sclerotinia sclerotiorum
≥ 80%: all other assays above

CCOC(=O)COC(=O)c1ccc2c(c1OC)B(O)OC2 [Compound 111, (2-ethoxy-2-oxo-ethyl) 1-hydroxy-7-methoxy-3H-2,1-benzoxaborole-6-carboxylate]
≥ 80%: [1] | [3] | Gaeumannomyces graminis | Pythium ultimum | [5]

COc1c(C(=O)OCC(C)(C)Cc2ccccc2)ccc2c1B(O)OC2 [Compound 117, (2,2-dimethyl-3-phenyl-propyl) 1-hydroxy-7-methoxy-3H-2,1-benzoxaborole-6-carboxylate]
≥ 80%: [1] | [2] | [3] | Gaeumannomyces graminis | [5]

COc1c(C(=O)OCCc2ccccc2F)ccc2c1B(O)OC2 [Compound 124, 2-(2-fluorophenyl)ethyl 1-hydroxy-7-methoxy-3H-2,1-benzoxaborole-6-carboxylate]
not listed: Sclerotinia sclerotiorum | [4]
≥ 80%: all other assays above

COc1c(C(=O)OC(C)CCc2ccccc2)ccc2c1B(O)OC2 (stereo not drawn) [Compound 130, (1-methyl-3-phenyl-propyl) 1-hydroxy-7-methoxy-3H-2,1-benzoxaborole-6-carboxylate]
not listed: Sclerotinia sclerotiorum | [4]
≥ 80%: all other assays above
